# System: TPM3-NTRK1-wt IC50 / primary target (e.g. CD74-ROS1-wt) IC50, Ba/F3 cells
# Experiment: Cell assay TRKA selectivity (TRKA potency divided by primary target potency)
# Format: cell-based
# Details: for TPM3-NTRK1-wt/CD74-ROS1-G2032R: TRKA selectivity ratio: TPM3-NTRK1-wt IC50 / CD74-ROS1-G2032R IC50, Ba/F3 cells; for TPM3-NTRK1-wt/CD74-ROS1-wt: TRKA selectivity ratio: TPM3-NTRK1-wt IC50 / CD74-ROS1-wt IC50, Ba/F3 cells; for TPM3-NTRK1-wt/EML4-ALK-L1196M-G1202R: TRKA selectivity ratio: TPM3-NTRK1-wt IC50 / EML4-ALK-L1196M-G1202R IC50, Ba/F3 cells; for TPM3-NTRK1-wt/EML4-ALK-wt: TRKA selectivity ratio: TPM3-NTRK1-wt IC50 / EML4-ALK-wt IC50, Ba/F3 cells
# Method in brief: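 IL-3-independent Ba/F3 lines stably expressing TPM3-TRKA or the primary fusion (e.g. CD74-ROS1 wt) were exposed to 3-fold compound dilutions for 72 h. Viability was read by CellTiter-Glo luminescence, with IC50 from four-parameter logistic fit. Selectivity is TPM3-NTRK1 IC50 divided by primary-target IC50, binned A (>30-fold) to D (<1).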
Structure (SMILES),TPM3-NTRK1-wt/CD74-ROS1-G2032R,TPM3-NTRK1-wt/CD74-ROS1-wt,TPM3-NTRK1-wt/EML4-ALK-L1196M-G1202R,TPM3-NTRK1-wt/EML4-ALK-wt
"Cc1nn(CC2CC2)c2c1Cc1cn(C)nc1-c1ccc(F)cc1[C@@H](C)Oc1cc-2cnc1N [Example 53, (19R)-3-(cyclopropylmethyl)-16-fluoro-5,10,19-trimethyl-20-oxa-3,4,10,11,23-pentaazapentacyclo[19.3.1.0^2,^6.0^8,^12.0^13,^18]pentacosa-1(24),2(6),4,8,11,13,15,17,21(25),22-decaen-22-amine]","A (bin A for very high selectivity, ratio>30-fold)","A (bin A for very high selectivity, ratio>30-fold)","A (bin A for very high selectivity, ratio>30-fold)","A (bin A for very high selectivity, ratio>30-fold)"
"CCn1ncc2c1-c1cnc(N)c(c1)OC(C)c1cc(F)ccc1-c1ccncc1C2 (centres unmarked) [Example 36, 3-ethyl-17-fluoro-20-methyl-21-oxa-3,4,10,24-tetraazapentacyclo[20.3.1.0^2,^6.0^8,^13.0^14,^19]hexacosa-1(25),2(6),4,8(13),9,11,14,16,18,22(26),23-undecaen-23-amine]","A (bin A for very high selectivity, ratio>30-fold)","A (bin A for very high selectivity, ratio>30-fold)","C (bin C for moderate selectivity, ratio≥1)","A (bin A for very high selectivity, ratio>30-fold)"
"CCc1noc2c1-c1cnc(N)c(c1)O[C@H](C)c1cc(F)ccc1-c1nncn1C2 [Example 120, (19R)-3-ethyl-16-fluoro-19-methyl-5,20-dioxa-4,8,10,11,23-pentaazapentacyclo[19.3.1.0^2,^6.0^8,^12.0^13,^18]pentacosa-1(24),2(6),3,9,11,13,15,17,21(25),22-decaen-22-amine]","C (bin C for moderate selectivity, ratio≥1)","A (bin A for very high selectivity, ratio>30-fold)","D (bin D for low selectivity, ratio<1)","C (bin C for moderate selectivity, ratio≥1)"
"C[C@H]1Oc2cc(cnc2N)-c2c(nn(C)c2CC2CC2)Cc2ccnn2-c2ccc(F)cc21 [Example 177, (19R)-3-(cyclopropylmethyl)-16-fluoro-4,19-dimethyl-20-oxa-4,5,11,12,23-pentaazapentacyclo[19.3.1.0^2,^6.0^8,^12.0^13,^18]pentacosa-1(24),2,5,8,10,13,15,17,21(25),22-decaen-22-amine]","A (bin A for very high selectivity, ratio>30-fold)","A (bin A for very high selectivity, ratio>30-fold)","B (bin B for high selectivity, ratio>10-fold)","A (bin A for very high selectivity, ratio>30-fold)"
"CC(C)Cn1ncc2c1-c1cnc(N)c(c1)O[C@H](C)c1cc(F)ccc1-c1nn(C)cc1C2 [Example 154, (19R)-16-fluoro-10,19-dimethyl-3-(2-methylpropyl)-20-oxa-3,4,10,11,23-pentaazapentacyclo[19.3.1.0^2,^6.0^8,^12.0^13,^18]pentacosa-1(24),2(6),4,8,11,13,15,17,21(25),22-decaen-22-amine]","A (bin A for very high selectivity, ratio>30-fold)","A (bin A for very high selectivity, ratio>30-fold)","B (bin B for high selectivity, ratio>10-fold)","A (bin A for very high selectivity, ratio>30-fold)"
"Cc1nn(CC2CC2)c2c1Cc1c(nn(C)c1Cl)-c1ccc(F)cc1[C@@H](C)Oc1cc-2cnc1N [Example 54, (19R)-9-chloro-3-(cyclopropylmethyl)-16-fluoro-5,10,19-trimethyl-20-oxa-3,4,10,11,23-pentaazapentacyclo[19.3.1.0^2,^6.0^8,^12.0^13,^18]pentacosa-1(24),2(6),4,8,11,13,15,17,21(25),22-decaen-22-amine]","A (bin A for very high selectivity, ratio>30-fold)","A (bin A for very high selectivity, ratio>30-fold)","B (bin B for high selectivity, ratio>10-fold)","A (bin A for very high selectivity, ratio>30-fold)"
"CCn1ncc2c1-c1cnc(N)c(c1)O[C@H](C)c1cc(F)ccc1-c1nocc1C2 [Example 99, (19R)-3-ethyl-16-fluoro-19-methyl-10,20-dioxa-3,4,11,23-tetraazapentacyclo[19.3.1.0^2,^6.0^8,^12.0^13,^18]pentacosa-1(24),2(6),4,8,11,13,15,17,21(25),22-decaen-22-amine]","A (bin A for very high selectivity, ratio>30-fold)","A (bin A for very high selectivity, ratio>30-fold)","C (bin C for moderate selectivity, ratio≥1)","B (bin B for high selectivity, ratio>10-fold)"
"CCn1nnc2c1-c1cnc(N)c(c1)O[C@H](C)c1cc(F)ccc1-c1ncc(F)cc1C2 [Example 70, (20R)-3-ethyl-10,17-difluoro-20-methyl-21-oxa-3,4,5,12,24-pentaazapentacyclo[20.3.1.0^2,^6.0^8,^13.0^14,^19]hexacosa-1(25),2(6),4,8(13),9,11,14,16,18,22(26),23-undecaen-23-amine]","A (bin A for very high selectivity, ratio>30-fold)","A (bin A for very high selectivity, ratio>30-fold)","C (bin C for moderate selectivity, ratio≥1)","A (bin A for very high selectivity, ratio>30-fold)"
"C[C@H]1Oc2cc(cnc2N)-c2c(C#N)nn(C)c2Cc2cc(C(F)F)nn2-c2ccc(F)cc21 [Example 132, (19R)-22-amino-10-(difluoromethyl)-16-fluoro-5,19-dimethyl-20-oxa-4,5,11,12,23-pentaazapentacyclo[19.3.1.0^2,^6.0^8,^12.0^13,^18]pentacosa-1(24),2(6),3,8,10,13,15,17,21(25),22-decaene-3-carbonitrile]","A (bin A for very high selectivity, ratio>30-fold)","A (bin A for very high selectivity, ratio>30-fold)","C (bin C for moderate selectivity, ratio≥1)","A (bin A for very high selectivity, ratio>30-fold)"
"C[C@H]1Oc2cc(cnc2N)-c2c(CC(F)F)nn(C)c2Cc2cc(C(F)F)nn2-c2ccc(F)cc21 [Example 180, (19R)-3-(2,2-difluoroethyl)-10-(difluoromethyl)-16-fluoro-5,19-dimethyl-20-oxa-4,5,11,12,23-pentaazapentacyclo[19.3.1.0^2,^6.0^8,^12.0^13,^18]pentacosa-1(24),2(6),3,8,10,13,15,17,21(25),22-decaen-22-amine]","A (bin A for very high selectivity, ratio>30-fold)","A (bin A for very high selectivity, ratio>30-fold)","C (bin C for moderate selectivity, ratio≥1)","A (bin A for very high selectivity, ratio>30-fold)"
"CCn1ncc2c1-c1cnc(N)c(c1)O[C@H](C)c1cc(F)ccc1-c1ncoc1C2 [Example 77, (19R)-3-ethyl-16-fluoro-19-methyl-9,20-dioxa-3,4,11,23-tetraazapentacyclo[19.3.1.0^2,^6.0^8,^12.0^13,^18]pentacosa-1(24),2(6),4,8(12),10,13,15,17,21(25),22-decaen-22-amine]","A (bin A for very high selectivity, ratio>30-fold)","A (bin A for very high selectivity, ratio>30-fold)","C (bin C for moderate selectivity, ratio≥1)","A (bin A for very high selectivity, ratio>30-fold)"
"Cc1nc2c(s1)Cn1ncc(C#N)c1-c1cnc(N)c(c1)O[C@H](C)c1cc(F)ccc1-2 [Example 67, (19R)-22-amino-16-fluoro-10,19-dimethyl-20-oxa-9-thia-5,6,11,23-tetraazapentacyclo[19.3.1.0^2,^6.0^8,^12.0^13,^18]pentacosa-1(24),2,4,8(12),10,13,15,17,21(25),22-decaene-3-carbonitrile]","A (bin A for very high selectivity, ratio>30-fold)","A (bin A for very high selectivity, ratio>30-fold)","C (bin C for moderate selectivity, ratio≥1)","A (bin A for very high selectivity, ratio>30-fold)"
"C[C@H]1Oc2cc(cnc2N)-c2c(cnn2CC2(C)CC2)Cc2cn(C)nc2-c2ccc(F)cc21 [Example 159, (19R)-16-fluoro-10,19-dimethyl-3-[(1-methylcyclopropyl)methyl]-20-oxa-3,4,10,11,23-pentaazapentacyclo[19.3.1.0^2,^6.0^8,^12.0^13,^18]pentacosa-1(24),2(6),4,8,11,13,15,17,21(25),22-decaen-22-amine]","A (bin A for very high selectivity, ratio>30-fold)","A (bin A for very high selectivity, ratio>30-fold)","B (bin B for high selectivity, ratio>10-fold)","A (bin A for very high selectivity, ratio>30-fold)"
"C[C@H]1Oc2cc(cnc2N)-c2c(C#N)ncn2Cc2ccncc2-c2ccc(F)cc21 [Example 11, (20R)-23-amino-17-fluoro-20-methyl-21-oxa-4,6,11,24-tetraazapentacyclo[20.3.1.0^2,^6.0^8,^13.0^14,^19]hexacosa-1(25),2,4,8(13),9,11,14,16,18,22(26),23-undecaene-3-carbonitrile]","A (bin A for very high selectivity, ratio>30-fold)","A (bin A for very high selectivity, ratio>30-fold)","C (bin C for moderate selectivity, ratio≥1)","A (bin A for very high selectivity, ratio>30-fold)"
